Measured values: patent publication US20210208149A1, “METHODS FOR CELL PROFILING” (priority 2018, published 2021)
pEC50: −log10 of the molar value. Counter-ions that a name gives are not always drawn.

Assays:
[1] = system: A172; details: GBM cell line A172; adapted from reference [13]; cited from earlier work
[2] = system: U118; details: GBM cell line U118; adapted from reference [13]; cited from earlier work
[3] = system: U87; details: GBM cell line U87; adapted from reference [13]; cited from earlier work
[4] = system: LN443; details: GBM cell line LN443; adapted from reference [13]; cited from earlier work
[5] = system: HEK293S; assay: Cell proliferation assay (CCK8), fixed concentration, control cell line; type: cell-based; details: fixed test concentration per compound, Table 1 log[M]: Trequinsin −4.6, Fucoxanthin −4.8, PF04449613 −4, PF02545920 −4.6, TIC10 −5, PF04691502 −6.6, GSK1059615 −5.5, LY294002 −5, Axitinib −5, Temozolomide −5
Experimental: (§1) A wide range of approved and exploratory drugs are profiled for their ability to inhibit GBM cell proliferation. Their EC50 values against each separate cell line in the set are determined. […] Screening is performed in 96-well or 384-well or 1536-well formats.
(§2) Data was obtained from testing these compounds at fixed concentrations against normal control cells (HEK293S) alongside reference GBM cells (U87 and A172), to obtain a dataset (Table 1) within which to compare the pharmacological and pharmaceutical properties of compounds across a chosen chemotyping panel.
(§3) Data Obtained from Screening Compounds within a Chemotyping Panel Against a Control Cell Line (HEK293S) and Two Reference GBM Cell Lines (U87 and A172)

[6] = system: A172; assay: Cell proliferation assay (CCK8), fixed concentration, reference GBM cell line A172; type: cell-based, human; details: fixed test concentration per compound, Table 1 log[M]: Trequinsin −4.6, Fucoxanthin −4.8, PF04449613 −4, PF02545920 −4.6, TIC10 −5, PF04691502 −6.6, GSK1059615 −5.5, LY294002 −5, Axitinib −5, Temozolomide −5
Experimental: as §1, §2, §3

[7] = system: U87; assay: Cell proliferation assay (CCK8), fixed concentration, reference GBM cell line U87; type: cell-based, human; details: fixed test concentration per compound, Table 1 log[M]: Trequinsin −4.6, Fucoxanthin −4.8, PF04449613 −4, PF02545920 −4.6, TIC10 −5, PF04691502 −6.6, GSK1059615 −5.5, LY294002 −5, Axitinib −5, Temozolomide −5
Experimental: as §1, §2, §3

COCc1c(C(C)C)nc(C(C)C)c(/C=C/[C@@H](O)C[C@@H](O)CC(=O)O)c1-c1ccc(F)cc1 [Cericastatin]
pEC50 [1]: 7.50 | pEC50 [2]: 6.13 | pEC50 [3]: 6.18 | pEC50 [4]: 7.62

CC(C)/N=c1\cc2n(-c3ccc(Cl)cc3)c3ccccc3nc-2cc1Nc1ccc(Cl)cc1 [Clofaximine]
pEC50 [1]: 4.92 | pEC50 [2]: 4.71 | pEC50 [3]: 5.07 | pEC50 [4]: 4.70

Nc1ncnc2c1ncn2[C@H]1C[C@H](O)[C@@H](CO)O1 [Deoxyadenosine]
pEC50 [1]: 5.75 | pEC50 [2]: 6.23 | pEC50 [3]: 5.68

COc1cccc2c1C(=O)c1c(O)c3c(c(O)c1C2=O)C[C@@](O)(C(=O)CO)C[C@@H]3O[C@H]1C[C@H](N)[C@H](O)[C@H](C)O1 [Docorubicine]
pEC50 [1]: 7.31 | pEC50 [2]: 7.39 | pEC50 [3]: 7.26 | pEC50 [4]: 7.20

COc1cccc2c1C(=O)c1c(O)c3c(c(O)c1C2=O)C[C@@](O)(C(=O)CO)C[C@@H]3O[C@H]1C[C@H](N)[C@@H](O)[C@H](C)O1 [Epirubicin]
pEC50 [1]: 7.21 | pEC50 [2]: 7.33 | pEC50 [3]: 7.23 | pEC50 [4]: 7.38

O=C1NC(=O)/C(=C/c2ccc3nccc(-c4ccncc4)c3c2)S1 [GSK1059615]
% Inhibiton HEK293 [5]: 79% | % Proliferation HEK293 [5]: 21% | % Inhibiton A172 [6]: 74% | % Proliferation A172 [6]: 26% | % Inhibiton U87 [7]: 57% | % Proliferation U87 [7]: 43%

COC(=O)C[C@](O)(CCCC(C)(C)O)C(=O)O[C@@H]1C(OC)=C[C@]23CCCN2CCc2cc4c(cc2[C@H]13)OCO4 [Homoharringtonin]
pEC50 [2]: 5.94 | pEC50 [3]: 7.66 | pEC50 [4]: 7.54

CCc1c2c(nc3ccc(OC(=O)N4CCC(N5CCCCC5)CC4)cc13)-c1cc3c(c(=O)n1C2)COC(=O)[C@]3(O)CC [Irinitecan]
pEC50 [1]: 5.10 | pEC50 [2]: 5.34 | pEC50 [3]: 5.10 | pEC50 [4]: 5.40

O=c1cc(N2CCOCC2)oc2c(-c3ccccc3)cccc12 [LY294002]
% Inhibiton HEK293 [5]: 2% | % Proliferation HEK293 [5]: 98% | % Inhibiton A172 [6]: 42% | % Proliferation A172 [6]: 58% | % Inhibiton U87 [7]: −17% | % Proliferation U87 [7]: 117%

Cn1cc(-c2ccncc2)c(-c2ccc(OCc3ccc4ccccc4n3)cc2)n1 [PF02545920]
% Inhibiton HEK293 [5]: 84% | % Proliferation HEK293 [5]: 16% | % Inhibiton A172 [6]: 80% | % Proliferation A172 [6]: 20% | % Inhibiton U87 [7]: 30% | % Proliferation U87 [7]: 70%

C[C@H](c1nc2c(cnn2C2CCOCC2)c(=O)[nH]1)N1CC(Oc2ccccc2)C1 [PF04449613]
% Inhibiton HEK293 [5]: 10% | % Proliferation HEK293 [5]: 90% | % Inhibiton A172 [6]: 61% | % Proliferation A172 [6]: 39% | % Inhibiton U87 [7]: −14% | % Proliferation U87 [7]: 114%

COc1ccc(-c2cc3c(C)nc(N)nc3n([C@H]3CC[C@H](OCCO)CC3)c2=O)cn1 [PF04691502]
% Inhibiton HEK293 [5]: 45% | % Proliferation HEK293 [5]: 55% | % Inhibiton A172 [6]: 44% | % Proliferation A172 [6]: 56% | % Inhibiton U87 [7]: 35% | % Proliferation U87 [7]: 65%

O=C(O)C[C@H](O)C[C@H](O)/C=C/c1c(C2CC2)nc2ccccc2c1-c1ccc(F)cc1 [Pitavastatin]
pEC50 [1]: 6.56 | pEC50 [2]: 5.72 | pEC50 [3]: 5.45 | pEC50 [4]: 7.08

Cc1ccccc1CN1C(=O)C2=C(CCN(Cc3ccccc3)C2)N2CCN=C12 [TIC10]
% Inhibiton HEK293 [5]: 83% | % Proliferation HEK293 [5]: 17% | % Inhibiton A172 [6]: 68% | % Proliferation A172 [6]: 32% | % Inhibiton U87 [7]: 27% | % Proliferation U87 [7]: 73%

Cn1nnc2c(C(N)=O)ncn2c1=O [Temozolomide]
% Inhibiton HEK293 [5]: 0% | % Proliferation HEK293 [5]: 100% | % Inhibiton A172 [6]: 13% | % Proliferation A172 [6]: 87% | % Inhibiton U87 [7]: 5% | % Proliferation U87 [7]: 95%

CC[C@@]1(O)C(=O)OCc2c1cc1n(c2=O)Cc2cc3c(CN(C)C)c(O)ccc3nc2-1 [Topetecan]
pEC50 [1]: 6.19 | pEC50 [2]: 6.74 | pEC50 [3]: 6.78 | pEC50 [4]: 6.87

COc1cc2c(cc1OC)-c1c/c(=N\c3c(C)cc(C)cc3C)n(C)c(=O)n1CC2 [Trequinsin]
% Inhibiton HEK293 [5]: 59% | % Proliferation HEK293 [5]: 41% | % Inhibiton A172 [6]: 37% | % Proliferation A172 [6]: 63% | % Inhibiton U87 [7]: 11% | % Proliferation U87 [7]: 89%

CC(C)[C@]12O[C@H]1[C@@H]1O[C@]13[C@]1(O[C@H]1C[C@H]1C4=C(CC[C@@]13C)C(=O)OC4)[C@@H]2O [Triptolide]
pEC50 [1]: 8.08 | pEC50 [2]: 8.00 | pEC50 [3]: 8.18 | pEC50 [4]: 7.51

CC[C@]1(O)C[C@H]2CN(CCc3c([nH]c4ccccc34)[C@@](C(=O)OC)(c3cc4c(cc3OC)N(C=O)[C@H]3[C@@](O)(C(=O)OC)[C@H](OC(C)=O)[C@]5(CC)C=CCN6CC[C@]43[C@@H]65)C2)C1 [Vincrinstine]
pEC50 [1]: 7.38 | pEC50 [2]: 5.92 | pEC50 [3]: 5.88 | pEC50 [4]: 6.06

CC[C@]1(O)C[C@@H]2CN(CCc3c([nH]c4ccccc34)[C@@](C(=O)OC)(c3cc4c(cc3OC)N(C)[C@H]3[C@@](O)(C(N)=O)[C@H](O)[C@]5(CC)C=CCN6CC[C@]43[C@@H]65)C2)C1 [Vindesine sulfate]
pEC50 [1]: 7.64 | pEC50 [2]: 6.17 | pEC50 [3]: 6.38 | pEC50 [4]: 6.31

Dactinmycin
pEC50 [1]: 7.00 | pEC50 [2]: 7.25 | pEC50 [3]: 6.36 | pEC50 [4]: 7.71

Fucoxanthin
% Inhibiton HEK293 [5]: 76% | % Proliferation HEK293 [5]: 24% | % Inhibiton A172 [6]: 66% | % Proliferation A172 [6]: 34% | % Inhibiton U87 [7]: 26% | % Proliferation U87 [7]: 74%
